Measured values reported in US5821046A, “RNA oligonucleotides that bind HIV tat protein” (RiboTargets Holdings PLC, priority 1990, dated 1998).
Read-outs that look alike come from different tables or passages of the source.

Key:
[1] = tested on: transactivation by tat (CAT reporter plasmid D5-3-3); test: transactivation in vivo, altered TAR sequences in CAT reporter plasmid D5-3-3 (Tables 2 and 3); format: cell-based
Procedure: (§1) The TAR sequences depicted in FIG. 3 [SEQ ID NO: 1-11] were introduced into a test plasmid, pD5-3-3, which carries a LTR and approximately 300 bases of 5' flanking sequences derived from the infectious proviral clone NL4 (29). The bacterial chloramphenicol acetyltransferase (CAT) gene and SV40 intron and terminator sequence from pSV2-CAT (30) was inserted downstream of TAR by cloning into the HindIII site at +77. Trans-activation was measured either by cotransfection of HeLa cells with the test plasmids and the tat expression plasmid pC63-4-1 (6) (panels a-d in FIG. 10), or by transfection of the test plasmids alone into HeLa/C63/tat (clone 9) cells (panels e-h).
In these experiments, cells were plated at a density of 3×10^5 in a T25 flask and transfected by the calcium phosphate method (31). […] To ensure that CAT activity was measured in the linear range of the assay (30), at less than 50% conversion of chloramphenicol in its acetylated forms, for each transfection, three different aliquots containing from 5 to 70 ul extract were assayed for CAT activity. […] Reaction products were extracted with ethylacetate, separated by thin layer chromatography on silica plates and bands were counted in scintillation fluid to calculate the chloramphenicol conversion efficiency per 10 ul of extract. […]

tat protein = test: competition filter binding assay, bulge and stem mutant TAR RNAs (FIGS. 10-17, Tables 2 and 3); parameters: species or system HIV-1; settings: 20 nM TAR RNA, read-out: D1/2
Description: The graphs shown in FIGS. 10 to 17 illustrate competition for tat binding between TAR RNA and various mutant TAR RNA sequences. In FIGS. 10 and 11 the region unpaired residues at positions 23, 24, 25, 23 being U, is shown to be essential for tat FIGS. 12, 13, 14, 15, 16 and 17 the base stem immediately adjacent to the U-rich bulge be required for efficient tat binding, with there being a requirement for a binding pair at residues 22 and 40 on one side of the bulge, and the base pair G26 - C39 on the other side of the bulge.
In Tables 2 and 3, D1/2 values for various mutant TAR RNA-L sequences are given along with the results of transactivation experiments in which the altered TAR RNA sequences were introduced into the CAT reporter plasmid D5-3-3. TAR RNA sequences which bind poorly are poor competitors and show increased values for D1/2.
Competitor RNA was produced by transcription as described in the method ---or FIG. 7. Binding reactions (500ul) contained 20 nM TAR RNA, 20,000 dpm ^32 P- labeled TAR RNA, 0.5 ug calf thymus DNA, 0.2 ug yeast tRNA, 40 Units RNAsin (Promega), 50 mM Tris-HCl pH7.5, 20 mM KCl in a final volume of 500 ul. […] The binding reaction mixtures were then filtered through pre-washed nitrocellulose filters (Millipore 0.45 u pore size) and the radioactivity retained on the filters assayed by liquid scintillation counting of the dried filters.

[2] = tested on: tat-dependent promoter activity of viral LTR carrying the TAR sequence; test: trans-activation CAT assay, HeLa cells cotransfected with LTR-CAT test plasmid and tat expression plasmid; format: cell-based; settings: HeLa cells cotransfected with tat plasmid
Description: If tat binding to TAR is necessary for trans-activation, then viral LTRs carrying TAR sequences with low affinities for tat should always have reduced tat-dependent promoter activity in vivo. Site-directed mutagenesis experiments on TAR have shown that trans-activation requires sequences in both the U-rich bulge (10, 11) and the loop sequence (12, 27, 28). These observations have now been extended, using TAR mutations with known affinities for tat in transfection experiments, the results of which are shown in FIG. 8. The experiments used either HeLa cells (FIG. 8a-d) or a constitutive producer of tat, HeLa/C63/tat cells (FIG. 8e-f).
as §1, with “e-h). […]” for “e-h).”

[3] = Table 2, mutations in the U-rich bulge
[4] = Table 3, mutations in the stem surrounding the U-rich bulge

Row | Substance | Units CAT activity/500 ng plasmid [1, 3] | Units CAT activity/500 ng plasmid [1, 4] | IC50 (tat protein; [3]) [nM] | IC50 (tat protein; [4]) [nM] | trans-activation phenotype [2]
1 | HIV-1 TAR (UUU): full length HIV-1 TAR RNA of 59 residues prepared by transcription, wild type, UUU bulge (GGGUCUCUCUGGUUAGACCAGAUUUGAGCCUGGGAGCUCUCUGGCUAACUAGGGAACCC; unmodified RNA) [reference compound] | 14,400 Units CAT activity/500 ng plas | 5,600 Units CAT activity/500 ng plas | 90 | 90 | –
2 | G28 to C28: TAR point mutation expected to disrupt the top of the TAR stem/loop structure (GGGUCUCUCUGGUUAGACCAGAUUUGACCCUGGGAGCUCUCUGGCUAACUAGGGAACCC; chemistry not given here) | – | – | – | – | defective phenotype
